Data reported in patent US12559464B2, “Quinazolinone dione compounds and uses thereof” (Edgewise Therapeutics, Inc., priority 2023, dated 2026).

What was measured:
[1] = system: myosin ATPase, Rabbit Psoas myofibrils; test: Myofibril ATPase assay, rabbit psoas (skeletal) myofibrils; assay type: biochemical; details: Rabbit Psoas Prep pCa 25 GEOM_MEAN; for Rabbit Psoas EC25 (Y75 value): concentration required to reduce myosin ATP-ase activity by 25%; for Rabbit Psoas Y125 value (marked #): concentration required to increase myosin ATP-ase activity by 25%
Experimental: [Worded in the source for another species; this species is reported under the same test.] (§1) Myofibril ATPase assays are known in the art to be useful in evaluating small molecules for the treatment of HCM and other cardiac indications. Myosin ATPase activity is assessed by using a coupled reaction system, in which ADP generated by the myosin ATPase function is coupled to the disappearance of NADH through the pyruvate kinase/lactate dehydrogenase (PK-LDH) system. ATPase activity produces ADP, which is used as a substrate for PK to produce pyruvate and regenerate ATP. The pyruvate is then used as a substrate by LDH to oxidize NADH to NAD+. The rate of the reaction is monitored through the time-dependent disappearance of NADH using absorbance at 340 nm, which, when the couple system is in stoichiometric excess, is directly correlated to the ATPase activity of the myosin. Inhibition of ATPase activity by the assayed compounds is indicated by a reduced rate of NADH loss, relative to vehicle-treated controls, over the experimental time window. Porcine Ventricle are the primary sources of myofibril material.
(§2) Materials: The following stock solutions and reagents were used in the Myofibril ATPase Assay: Stock Solutions; PIPES, 200 mM and 120 mM in H2O, pH 7.0; MgCl2 in H2O, 200 mM; PM12 Buffer, 10×: 120 mM PIPES (from 200 mM stock), 20 mM MgCl2 (from 200 mM stock); PBS Buffer, 1X: 135 mM NaCl, […], 10 mM Na(PO4)2, 1.8 mM K2(PO4), pH 7.4; EGTA in H2O, 250 mM; CaCl2) in H2O, 500 mM; DTT in H2O, 1 M; BSA in H2O, 10 mg/mL; ATP in 1×PBS, 50 mM; NADH in 1X PM12 and 1 mM DTT, 26 mM; PEP in 1X PM12, 78 mM, pH 7.0.
(§3) Stock Solutions of pCa buffer. Combine PIPES, CaCl2, and EGTA solutions with water. Adjust pH to 7.0 and bring final volume to 100 mL.
(§4) Buffer A & Buffer B. Prepare buffers A and B according to the table below.
(§5) Myofibril ATPase Assay Procedure: BSA, ATP, NADH, PEP, and DTT solutions were thawed at room temperature, then transferred to ice. Pellet-frozen myofibrils were transferred with approximately twice the required volume into a sufficiently large tube and capped. Myofibrils were thawed by rolling in a water bath for approximately 15 min at room temperature and cooled on ice. Buffers A and B were prepared by adjusting volumes as necessary for required number of wells and stored on ice. 0.5 μL of the compounds to be assayed were added into wells. 25 μL of Buffer A was dispensed into the wells, followed by 25 μL of Buffer B. The wells were measured for absorbance at 340 nm, using a kinetic protocol in which the wells are read every 1.5-2 min for 75 min. Assay data analysis was performed using a python script that filtered the raw data to retain those points falling between a starting and ending time and between a maximum and minimum absorbance, then used the filtered time-domain 340 nm absorbance data in each well to calculate a slope via linear regression analysis in units of mAU/min. Compound slopes were normalized between 100% and 0% activity, where 100% represented the slope of wells containing only compound vehicle, and fit to a 4-parameter logistic model. In addition to the fit parameters, the EC25% values were calculated, relative to the 100% normalized value. Additionally, the Y125 values were calculated for compounds that increased myosin ATP-ase activity. Fit parameters, calculated effective concentrations, filtered raw data, and calculated slopes were exported, in addition to compound-specific graphs of normalized ATPase activity versus concentration in μM. Each value reported in Table 8 is either a Y75 value or a Y125 value. Values without pound sign, #, are Y75 values, which reflect the concentration required to reduce myosin ATP-ase activity by 25% (e.g., Y-axis activity value is 75% of initial value), relative to myosin ATP-ase activity in the absence of exogenous compound. […]

[2] = system: myosin ATPase, Porcine Atria myofibrils; test: Myofibril ATPase assay, porcine atria myofibrils; assay type: biochemical; details: Porcine Atria Prep pCa 25 GEOM_MEAN; for Porcine Atria EC25 (Y75 value): concentration required to reduce myosin ATP-ase activity by 25%
[3] = biological target: T1, myosin ATPase, Porcine Ventricle myofibrils (Sus scrofa, UniProt P79293); test: Myofibril ATPase assay, porcine ventricle myofibrils; assay type: biochemical, porcine (Yucatan minipigs); details: concentration required to reduce myosin ATP-ase activity by 25%; Porcine Ventricle Prep pCa 25 GEOM_MEAN
T1 construct: Myofibrils from porcine cardiac muscle was isolated from the left ventricle of Yucatan minipigs; tissue Exemplar Genetics; host or cells: left ventricle of Yucatan minipigs, myofibrils
T1 sequence (P79293 whole entry): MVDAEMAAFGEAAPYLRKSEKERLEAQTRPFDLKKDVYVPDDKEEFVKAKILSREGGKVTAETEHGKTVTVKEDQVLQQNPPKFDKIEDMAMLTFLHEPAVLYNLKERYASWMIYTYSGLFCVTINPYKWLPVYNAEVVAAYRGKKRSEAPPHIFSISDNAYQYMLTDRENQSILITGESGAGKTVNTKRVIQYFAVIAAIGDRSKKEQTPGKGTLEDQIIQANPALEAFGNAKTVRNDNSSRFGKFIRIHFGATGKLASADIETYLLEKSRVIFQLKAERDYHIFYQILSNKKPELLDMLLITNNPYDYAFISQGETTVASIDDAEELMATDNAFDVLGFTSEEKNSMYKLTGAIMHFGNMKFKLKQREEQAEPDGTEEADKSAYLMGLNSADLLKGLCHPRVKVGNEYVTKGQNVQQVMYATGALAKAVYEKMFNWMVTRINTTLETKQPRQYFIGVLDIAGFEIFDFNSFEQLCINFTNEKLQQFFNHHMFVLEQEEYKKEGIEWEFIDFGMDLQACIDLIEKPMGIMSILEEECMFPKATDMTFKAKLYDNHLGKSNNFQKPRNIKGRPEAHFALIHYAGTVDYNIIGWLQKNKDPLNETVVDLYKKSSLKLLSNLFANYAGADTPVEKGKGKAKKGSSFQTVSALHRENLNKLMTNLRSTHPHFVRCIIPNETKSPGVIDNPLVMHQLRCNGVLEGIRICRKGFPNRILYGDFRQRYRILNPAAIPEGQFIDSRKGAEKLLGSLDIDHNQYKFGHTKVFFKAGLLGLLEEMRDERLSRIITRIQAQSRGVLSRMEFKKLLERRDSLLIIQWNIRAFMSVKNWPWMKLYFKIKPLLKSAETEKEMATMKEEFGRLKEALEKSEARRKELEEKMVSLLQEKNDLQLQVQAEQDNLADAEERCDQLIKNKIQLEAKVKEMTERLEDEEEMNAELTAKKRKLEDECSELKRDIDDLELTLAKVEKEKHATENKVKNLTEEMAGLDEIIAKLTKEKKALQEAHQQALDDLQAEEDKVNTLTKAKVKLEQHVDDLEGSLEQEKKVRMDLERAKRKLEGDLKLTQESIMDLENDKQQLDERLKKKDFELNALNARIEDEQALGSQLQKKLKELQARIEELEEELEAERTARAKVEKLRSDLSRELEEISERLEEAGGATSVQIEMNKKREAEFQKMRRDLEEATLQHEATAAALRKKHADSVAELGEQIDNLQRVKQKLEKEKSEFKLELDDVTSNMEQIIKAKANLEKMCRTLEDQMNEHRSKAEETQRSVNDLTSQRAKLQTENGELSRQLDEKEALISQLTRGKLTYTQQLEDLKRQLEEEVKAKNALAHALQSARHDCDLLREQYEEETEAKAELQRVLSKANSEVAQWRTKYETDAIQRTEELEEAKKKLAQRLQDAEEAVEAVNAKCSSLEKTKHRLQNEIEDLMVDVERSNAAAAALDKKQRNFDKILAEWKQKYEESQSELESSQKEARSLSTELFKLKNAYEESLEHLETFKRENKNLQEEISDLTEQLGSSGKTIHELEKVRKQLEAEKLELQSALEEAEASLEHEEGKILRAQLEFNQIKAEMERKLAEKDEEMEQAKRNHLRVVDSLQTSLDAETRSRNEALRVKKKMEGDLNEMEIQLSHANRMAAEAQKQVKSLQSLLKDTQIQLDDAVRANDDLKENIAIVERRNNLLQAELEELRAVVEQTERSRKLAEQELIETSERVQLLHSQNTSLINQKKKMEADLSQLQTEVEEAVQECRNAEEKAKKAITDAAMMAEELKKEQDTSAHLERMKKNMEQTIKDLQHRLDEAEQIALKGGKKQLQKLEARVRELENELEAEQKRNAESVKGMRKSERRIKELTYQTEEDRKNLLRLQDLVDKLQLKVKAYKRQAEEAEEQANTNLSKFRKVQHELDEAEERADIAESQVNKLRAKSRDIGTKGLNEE
Experimental: as §1, §2, §3, §4, §5

| Rabbit Psoas EC25 (Y75 value) [1] | Porcine Atria EC25 (Y75 value) [2] | Porcine Ventricle EC25 (Y75 value) [3] | Rabbit Psoas Y125 value (marked #) [1] | Porcine Atria Y125 value (marked #) ([2]; concentration required to increase myosin ATP-ase activity by 25%) | SMILES |
| --- | --- | --- | --- | --- | --- |
| 0.174 µM | 0.118 µM | 0.559 µM | – | – | C[C@H](NC(=O)Cn1c(=O)[nH]c2ccc(F)cc2c1=O)c1cnc(C#N)nc1 (single isomer, unassigned) [Compound 210] |
| 100 µM | 100 µM | 100 µM | – | – | C[C@H](NC(=O)[C@H](CC1CC1)n1c(=O)[nH]c2ccccc2c1=O)c1ncc(F)cc1F (single isomer, unassigned) [Compound 211] |
| 100 µM | 100 µM | 100 µM | – | – | C[C@H](NC(=O)[C@@H](CC1CC1)n1c(=O)[nH]c2ccccc2c1=O)c1ncc(F)cc1F (single isomer, unassigned) [Compound 212] |
| 84.531 µM | 100 µM | 50.21 µM | – | – | C[C@H](NC(=O)[C@H](CC1CC1)n1c(=O)[nH]c2ccccc2c1=O)c1ccc(F)cc1F (single isomer, unassigned) [Compound 501] |
| 13.814 µM | 43.27 µM | 100 µM | – | – | C[C@H](NC(=O)[C@@H](CC1CC1)n1c(=O)[nH]c2ccccc2c1=O)c1ccc(F)cc1F (single isomer, unassigned) [Compound 502] |
| 0.36 µM | 0.1046 µM | 1.526 µM | – | – | Cc1cc(F)ccc1[C@H](C)NC(=O)Cn1c(=O)[nH]c2ccccc2c1=O (single isomer, unassigned) [Compound 503] |
| – | 20.67 µM | 43.467 µM | 3.28^#^ μM | – | C[C@H](NC(=O)C(Cc1ccccc1)n1c(=O)[nH]c2ccccc2c1=O)c1ccc(F)cc1F (single isomer, unassigned) [Compound 504] |
| 100 µM | 100 µM | 100 µM | – | – | C[C@H](NC(=O)C(c1cccnc1)n1c(=O)[nH]c2ccccc2c1=O)c1ccc(F)cc1F (single isomer, unassigned) [Compound 508] |
| 100 µM | 100 µM | 100 µM | – | – | CCC(C(=O)N[C@@H](C)c1ccc(F)cc1F)n1c(=O)[nH]c2ccccc2c1=O (single isomer, unassigned) [Compound 509] |
| 100 µM | 100 µM | 100 µM | – | – | C[C@H](NC(=O)C(c1ccccc1)n1c(=O)[nH]c2ccccc2c1=O)c1ccc(F)cc1F (single isomer, unassigned) [Compound 510] |
| 35.849 µM | 2.118 µM | 100 µM | – | – | C[C@H](NC(=O)C(CO)n1c(=O)[nH]c2ccccc2c1=O)c1ccc(F)cc1F (single isomer, unassigned) [Compound 511] |
| – | – | 100 µM | 23.575^#^ μM | 30.14^# μM | CC(C)CC(C(=O)N[C@@H](C)c1ccc(F)cc1F)n1c(=O)[nH]c2ccccc2c1=O (single isomer, unassigned) [Compound 512] |
| 100 µM | 100 µM | 100 µM | – | – | CC(C)C(C(=O)N[C@@H](C)c1ccc(F)cc1F)n1c(=O)[nH]c2ccccc2c1=O (single isomer, unassigned) [Compound 513] |
| 100 µM | 100 µM | 100 µM | – | – | C[C@H](NC(=O)Cn1c(=O)[nH]c2ccccc2c1=O)c1cc(C(F)(F)F)cc(C(F)(F)F)c1 (single isomer, unassigned) [Compound 517] |
| 100 µM | 100 µM | 100 µM | – | – | C[C@@H](NC(=O)Cn1c(=O)[nH]c2ccccc2c1=O)c1ccc(Cl)cc1 (single isomer, unassigned) [Compound 526] |
| 100 µM | 100 µM | 100 µM | – | – | COc1ccc([C@@H](C)NC(=O)Cn2c(=O)[nH]c3ccccc3c2=O)cc1 (single isomer, unassigned) [Compound 528] |
| 100 µM | 100 µM | 100 µM | – | – | COc1ccc([C@H](C)NC(=O)Cn2c(=O)[nH]c3ccccc3c2=O)cc1 (single isomer, unassigned) [Compound 529] |
| 3.24 µM | 0.445 µM | 4.63 µM | – | – | C[C@H](NC(=O)Cn1c(=O)[nH]c2ccccc2c1=O)c1ccc(Cl)cc1 (single isomer, unassigned) [Compound 530] |
| 100 µM | 100 µM | 100 µM | – | – | C[C@@H](NC(=O)Cn1c(=O)[nH]c2ccccc2c1=O)c1ccccc1 (single isomer, unassigned) [Compound 533] |
| 100 µM | 100 µM | 100 µM | – | – | C[C@H](NC(=O)Cn1c(=O)[nH]c2ccccc2c1=O)c1ccccc1 (single isomer, unassigned) [Compound 534] |
| 0.023 µM | 0.07 µM | 0.075 µM | – | – | Cc1c(F)ccc2[nH]c(=O)n(CC(=O)N[C@@H]3COc4cc(C#N)cnc43)c(=O)c12 (single isomer, unassigned) [Compound 701] |
| 4.019 µM | 3.03 µM | 7.299 µM | – | – | Cc1c(F)ccc2[nH]c(=O)n(CC(=O)N[C@H]3COc4cc(C#N)cnc43)c(=O)c12 (single isomer, unassigned) [Compound 702] |
| 2.34 µM | 2.78 µM | 11.35 µM | – | – | Cc1c(F)ccc2[nH]c(=O)n(CC(=O)N[C@H](C)c3ncc(C#N)cn3)c(=O)c12 (single isomer, unassigned) [Compound 3005] |
| 0.06 µM | 0.10 µM | 0.25 µM | – | – | Cc1c(F)ccc2[nH]c(=O)n(CC(=O)N[C@H](C)c3ccc(C#N)cn3)c(=O)c12 (single isomer, unassigned) [Compound 3009] |
| 1.59 µM | 1.97 µM | 1.90 µM | – | – | Cc1c(F)ccc2[nH]c(=O)n(CC(=O)N[C@@H](C)c3ccc(C#N)cn3)c(=O)c12 (single isomer, unassigned) [Compound 3010] |
